Measured values: US12109204B2, “Methods for treating muscular dystrophies” (The Regents of the University of California, priority 2018, dated 2024)

Legend:
Format in all cases: cell-based, murine
[1] = test system: SSPN protein; assay: SSPN protein immunoblot in mdx myotubes; details: mdx cells, 48 hours, immunoblot normalized to GAPDH (FIG. 10f)
Protocol: C2C12 cells (American Type Culture Collection) were grown at 37° C. with 5% CO2 in growth media containing DMEM (Gibco) with 20% FBS (Sigma-Aldrich). Upon reaching confluency, the media was replaced with differentiation media containing DMEM with 2% horse serum (Sigma-Aldrich). Conditionally immortalized H2K mdx myoblast cells with a nonsense mutation in exon 23 of dystrophin were a gift from Terrance Partridge, Ph.D. (Children's National Medical Center, Washington, D.C.). Cells were allowed to proliferate on 0.01% gelatin (Sigma-Aldrich) coated plates at 33° C. with 5% CO2 with growth media containing DMEM, 20% HI-FBS (Invitrogen), 2% L-glutamine (Sigma-Aldrich), 2% chicken embryo extract (Accurate Chemical), 1% penicillin-streptomycin (Sigma-Aldrich), and 20U/ml of fresh interferon gamma (Gibco). […] The supernatant was collected, quantified for protein concentration using the DC protein assay (Bio-Rad), and normalized to 2 mg/ml in water and Laemmli sample buffer with a final concentration of 10% glycerol (Sigma-Aldrich), 5% beta-mercaptoethanol (Sigma-Aldrich), 3% sodium dodecyl sulfate (Sigma-Aldrich), and 0.05% bromophenol blue (Sigma-Aldrich). […] Autoradiography films were developed using a SRX-101A tabletop processor (Konica Minolta), scanned to a digital file, and analyzed by densitometry of bands using ImageJ version 1.51s. […]

[2] = test system: hSSPN-EGFP myotubes (human sarcospan promoter reporter in C2C12); assay: hSSPN-EGFP reporter myotube assay (high-content imaging); details: doses between 3.9 nm to 1 μM, 48 hours (FIG. 10a)
[3] = test system: hSSPN-Luciferase reporter cells (human sarcospan promoter reporter in C2C12); assay: hSSPN-Luciferase reporter assay (Bright-Glo); details: doses between 3.9 nm to 1 μM, 48 hours (FIG. 10b)
Protocol: C2C12 immortalized murine myoblasts cultured in growth media consisting of DMEM (Gibco) with 20% Fetal Bovine Serum (Sigma-Aldrich) at 37° C. with 5% CO2 were transfected with the hSSPN-EGFP or hSSPN-Luciferase linearized plasmids using Lipofectamine 3000 Transfection Reagent (Thermo Fisher Scientific). Transfected cells were selected using 800 μg/ml of G418 (Sigma-Aldrich) for 4 weeks to generate stable cell lines expressing reporter protein under control of the human SSPN promoter.
hSSPN-Luciferase myoblasts were cultured as described above. After 48 hours of treatment, plates were allowed to equilibrate to room temperature before the media was aspirated using an EL406 combination washer dispenser at room temperature. Bright-Glo luciferase assay system reagent (Promega) and differentiation media were added to cells at a 1:2 dilution using a Multidrop 384. After a 3-minute incubation at room temperature, luminescence signal was quantified using an Envision plate reader (PerkinElmer). The relative luminescence units were analyzed to determine fold change of treated over vehicle treated cells.
Cells were treated for 48 hours beginning at day 2 of differentiation with DMSO (vehicle control, ATCC), felodipine (Sigma), nilvadipine (Sigma), alloxazine (Sigma), GW5074 (Sigma), methylthioadenosine (Santa Cruz Biotechnology), or ezutromid (Cayman Chemicals) diluted in cell type specific differentiation media at doses listed in the figures. For gene expression studies, each treatment was performed in duplicate. For protein studies, each treatment was performed with single or double replicates.

CCOC(=O)C1=C(C)NC(C)=C(C(=O)OC)C1c1cccc(Cl)c1Cl (stereo not shown) [Felodipine, 5-O-ethyl 3-O-methyl 4-(2,3-dichlorophenyl)-2,6-dimethyl-1,4-dihydropyridine-3,5-dicarboxylate]
SSPN protein levels [1]: increases sarcospan protein levels | SSPN protein levels ([1]; listed as felodipine): increased SSPN protein levels | hSSPN-EGFP reporter activity, counterscreen [2]: increased activity | hSSPN-Luciferase reporter activity, counterscreen [3]: increased activity
